Patent EP0210351A2, “Use of porphyrin derivatives in the detection and treatment of tumours” (Nippon Petrochemicals Co., Ltd., priority 1985, dated 1987)

Tests used:
[1] = test system: SmT-F transplanted tumors; test: Photodynamic therapy of transplanted mouse tumors, necrotic/affected area by Evans Blue dye (Example 8); format: in vivo, DBA/2 Ha Ros-d+Ha mice; conditions: 100 mg/kg iv, 24 hrs between drug dose and light, 200 mW/cm^2, 300 J/cm^2, wavelength nm: 2-acetyl 680, 2-formyl 690, chlorin e6 665, deutero 655, meso 652, necrotic/affected tumor area
Method: The treatment and evaluation procedure is as follows: • DBA/2 Ha Ros-d+Ha mice with SmT-F transplanted tumors either in the exterior part of the hind leg or the side of the mouse were injected intravenously via the external jugular or intraperitoneally with the photosensitizing drug. At the specified time after injection, the area over the tumor was shaved and the light treatment begun.
Light from a Cooper Aurora argon pumped tunable dye laser was administered via a micro lens system (developed by Dr. Daniel Doiron, D,R.D. Consulting, Santa Barbara, California) coupled through a quartz fiber to the laser. The optical properties of the lens are such that the light exits the lens in a circular pattern with homogenous intensity throughout the lighted area, The diameter of the lighted area is a function of the distance from the lens,
The light intensity was measured with a Yellow Springs Instrument Model 65 A Radiometer at the point of treatment. A 1.5 cm diameter circle of the animal's skin, centered as closely as possible over the tumor, was irradiated in all the experiments. The intensity, wavelength, and dosage of light is included in the data for individual groups of animals. Wavelengths are adjusted, using a Hartridge reversion spectroscope to within 1 nm of the stated value.
Twenty four hours after light treatment, each mouse received 5 mg of Evans Blue Dye intravenously (1). After an additional two hours, the mice were sacrificed and the tumors were sectioned vertically through the center of the light treated area. Unaffected tumor was stained blue as was unaffected normal tissue. Necrotic or affected areas were white or red in appearance. Measurements on both the whole tumors and affected areas of the tumors were made vertically and horizontally with calipers to the nearest one half millimeter.

[2] = test system: Morris Hepatoma 7777 tumors; test: Photodynamic therapy, chlorin e6 compared with Photofrin II, tumor necrosis by Evans Blue dye (Example 7); format: in vivo, Buffalo rats; conditions: 19 tumors treated; 20mg/kg intravenously; light 24 hours later; 665 nanometer; 100 mw/cm^2; 20 joules/cm^2
Method: Male Buffalo rats (approximately 200g each), with transplanted subcutaneous Morris Hepatoma 7777 tumors on the exterior portion of the hind legs were injected intravenously via the exterior jugular with chlorin-e6 or Photofrin II, ^(2) at a dosage of 20mg/kg. Twenty four hours later, the areas over the tumors were shaved and the light treatment was begun.
Light from a Cooper Aurora argon pumped tunable dye laser was administered via a micro lens system (developed by Dr. Daniel Doiron, D.R.D. Consulting, Santa Barbara, California) coupled through a quartz fiber to the laser. The optical properties of the lens are such that the light exits the lens in a circular pattern with a homogenous intensity throughout the lighted area. The diameter of the lighted area is a function of its distance from the lens.
The light intensity was measured with a Yellow Springs Instrument Model 65A Radiometer at the point of treatment. […] Photofrin II rats were treated with 630 nanometer light in accordance with the preponderance of photodynamic therapy experiments described in the literature, using this drug, and its forerunner HPD or Photofrin I. The wavelengths of light were determined with the aid of a Hartridge reversion spectroscope to within one nanometer. […]
Nineteen tumors were evaluated for Chlorin e6 and light effect while twenty two tumors were assessed for Photofrin II and light effect.

[3] = test system: Morris Hepatoma 7777; test: Photodynamic therapy, depth of tumor necrosis by Evans Blue method (Example 6); format: in vivo, Buffalo rats; conditions: Tumor 7777; 20 Joules/cm^2; drug dose 20 mg/kg intravenously; 24 hrs between drug and light; 665 nm; 100 mW/cm^2; n=3
Method: The phtotdynamic therapy experiments have been carried out on Buffalo rats, using the transplantable tumor, Morris Hepatoma 7777. The tumors were transplanted subcutaneously on the outside of the thigh. During treatment, the tumors ranged in size between 1 and 2.5 cm in diameter.
The general treatment regime is as follows. The rats are injected with a solution of the chlorin prepared as follows: 20mg of the sodium salt of the chlorin was dissolved in 1 ml of 0.9% NaCl. The chlorin solution was then injected intravenously through the external jugular while the rat was anesthetized with ether. The volume of solution injected was calculated based upon the weight of the animal and the dosage, on a weight to weight basis, for the particular experiment. […]
The lens disperses the laser beam, providing a circular distribution of light with homogenous light intensity throughout the area of the incident light beam. […] The light intensity was determined using a Yellow Springs Instrument, Model 65A, radiometer. […]
Subsequent to illumination, the animal was returned to its cage and, 24 hours later, it was treated intravenously in the external jugular vein with 14 mg of Evans Blue dye, dissolved in 250 ul of 0.9% NaCl. […] The extent of tumor necrosis was assessed by the lack of dye uptake, and the depth of the necrotic cross section of the tumor was recorded in millimeters. […]

SMILES | X̄ ± s.d. (cm) [1] [cm] | range cm [1] | number of tumors developing necrosis following treatment [2] | Range mm: range of depth of necrosis within the group [3] | x̄ s.d.(n): mean depth of necrosis of the tumor tissue [3]
CCC1=C(C)c2cc3[nH]c(cc4nc(c(CC(=O)O)c5[nH]c(cc1n2)c(C)c5C(=O)O)C(CCC(=O)O)C4C)c(C)c3C(C)=O (stereo not shown) [2-acetyl chlorin e6] | 0.04±0.08 | 0.00-0.15 cm | – | – | –
CCC1=C(C)c2cc3[nH]c(cc4nc(c(CC(=O)O)c5[nH]c(cc1n2)c(C)c5C(=O)O)C(CCC(=O)O)C4C)c(C)c3C=O (stereo not shown) [2-formyl chlorin e6, 2-Desvinyl-2-FormylChlorin e6] | 0.33±0.12 | 0.20-0.45 cm | – | – | –
C=Cc1c(C)c2cc3nc(c(CC(=O)O)c4[nH]c(cc5nc(cc1[nH]2)C(C)=C5CC)c(C)c4C(=O)O)[C@@H](CCC(=O)O)[C@@H]3C [Chlorin e6] | 0.26±0.05 | 0.20-0.35 cm | 17 | 3.5-5 mm | 4.5±0.9 (3) mm
CCC1=C(C)c2cc3cc(C)c(cc4nc(c(CC(=O)O)c5[nH]c(cc1n2)c(C)c5C(=O)O)C(CCC(=O)O)C4C)[nH]3 (stereo not shown) [deuterochlorin e6, Deuterochlorin e6] | 0.59±0.07 | 0.50-0.70 cm | – | – | –
CCC1=C(C)c2cc3[nH]c(cc4nc(c(CC(=O)O)c5[nH]c(cc1n2)c(C)c5C(=O)O)C(CCC(=O)O)C4C)c(C)c3CC (stereo not shown) [mesochlorin e6, Mesochlorin e6] | 0.06±0.08 | 0.00-0.15 cm | – | – | –
